Assays:
Factor XIa = Factor XIa (Homo sapiens, UniProt P03951); assay: Factor XIa inhibition assay utilizing a fluorophore-quencher pair peptide substrate (FLINT); type: biochemical; settings: 11-point, 3-fold serial dilution, top 100 nM; 30 min preincubation; 15 μM 5Fam-KLTRAETV-K5Tamra substrate; kinetic reads over 30 min; read-out: FXIa Inhibition IC50
Method in brief: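 FXIa ([…]) preincubated 30 min with compound (11-point, 3-fold, top 100 nM, 2% DMSO) in Tris pH 7.5, NaCl, CaCl2, BSA, CHAPS; 15 μM 5Fam-KLTRAETV-K5Tamra substrate then added. Fluorescence (485/520 nm) read kinetically over 30 min at room temperature; IC50 by 4-parameter fit.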

human plasma kallikrein = human plasma kallikrein (Homo sapiens, UniProt P03952); assay: Kallikrein inhibition assay utilizing a quenched AMC peptide substrate (FLINT); type: biochemical; settings: 11-point, 3-fold serial dilution, top 1 μM; 30 min preincubation; 2 nM kallikrein; 50 μM Z-Gly-Pro-Arg-AMC; kinetic reads over 30 min
Chain of human plasma kallikrein (P03952 391-638 limits assumed): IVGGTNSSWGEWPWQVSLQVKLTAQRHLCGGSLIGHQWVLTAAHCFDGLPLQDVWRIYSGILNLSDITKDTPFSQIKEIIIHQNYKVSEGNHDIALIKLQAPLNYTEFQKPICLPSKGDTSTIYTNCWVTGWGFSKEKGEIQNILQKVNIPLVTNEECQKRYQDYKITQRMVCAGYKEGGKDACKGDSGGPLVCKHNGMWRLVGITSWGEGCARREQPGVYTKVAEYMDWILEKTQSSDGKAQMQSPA
Chain of human plasma kallikrein (P03952 20-390 partner limits assumed): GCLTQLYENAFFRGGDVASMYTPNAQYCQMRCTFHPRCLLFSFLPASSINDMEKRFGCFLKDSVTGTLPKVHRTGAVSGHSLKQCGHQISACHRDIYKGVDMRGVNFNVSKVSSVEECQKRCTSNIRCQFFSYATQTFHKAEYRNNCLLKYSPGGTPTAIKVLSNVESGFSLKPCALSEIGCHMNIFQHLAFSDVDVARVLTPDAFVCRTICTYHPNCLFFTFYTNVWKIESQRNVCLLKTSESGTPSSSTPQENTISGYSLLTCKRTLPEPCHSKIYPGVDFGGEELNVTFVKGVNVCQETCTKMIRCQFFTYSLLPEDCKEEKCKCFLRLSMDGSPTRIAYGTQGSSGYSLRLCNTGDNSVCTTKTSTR
Method in brief: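 Human plasma kallikrein (2 nM final) was pre-incubated 30 min at room temperature with compound (11-point 3-fold series, top 1 μM, 2% DMSO) in Tris pH 7.5, NaCl, CaCl2, BSA, CHAPS buffer. Reaction started with 50 μM Z-Gly-Pro-Arg-AMC (KM 40 μM), and fluorescence (340/440 nm) was read kinetically over 30 min. IC50 came from a 4-parameter logistic fit.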

Chain of Factor XIa (P03951 388-625 limits assumed): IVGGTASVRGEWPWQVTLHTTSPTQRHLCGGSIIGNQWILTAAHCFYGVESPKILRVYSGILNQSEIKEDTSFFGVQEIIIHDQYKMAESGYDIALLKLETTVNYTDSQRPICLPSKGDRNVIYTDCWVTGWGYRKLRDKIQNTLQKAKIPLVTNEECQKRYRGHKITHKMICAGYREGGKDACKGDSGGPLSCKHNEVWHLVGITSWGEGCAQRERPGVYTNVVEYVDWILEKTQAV
Chain of Factor XIa (P03951 19-387 partner limits assumed): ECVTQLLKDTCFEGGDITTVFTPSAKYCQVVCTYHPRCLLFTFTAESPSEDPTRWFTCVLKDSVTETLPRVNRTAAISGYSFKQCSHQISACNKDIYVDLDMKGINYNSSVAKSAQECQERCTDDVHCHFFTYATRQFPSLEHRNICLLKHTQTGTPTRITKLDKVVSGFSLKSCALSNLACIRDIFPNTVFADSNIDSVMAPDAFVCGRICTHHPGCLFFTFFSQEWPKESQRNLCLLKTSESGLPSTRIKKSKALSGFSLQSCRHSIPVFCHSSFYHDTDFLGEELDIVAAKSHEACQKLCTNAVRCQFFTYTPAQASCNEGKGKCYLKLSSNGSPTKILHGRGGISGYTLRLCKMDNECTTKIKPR

Compound	IC50 (Factor XIa) [µM]	IC50 (human plasma kallikrein) [µM]
Cc1nc(-c2ccc(NC(=O)[C@@H]3CC[C@@H]4CC(c5c(-n6cnnn6)ccc(Cl)c5F)=CC(=O)N43)cc2)co1 [ID No. 20, (3S,8aR)-7-(3-Chloro-2-fluoro-6-(1H-tetrazol-1-yl)phenyl)-N-(4-(2-methyloxazol-4-yl)phenyl)-5-oxo-1,2,3,5,8,8a-hexahydroindolizine-3-carboxamide]	0.0259	0.112
O=C(Nc1ccc2[nH]nnc2c1)[C@@H]1CC[C@@H]2CC(c3c(-n4cnnn4)ccc(Cl)c3F)=CC(=O)N21 [ID No. 21, (3S,8aR)—N-(1H-Benzo[d][1,2,3]triazol-5-yl)-7-(3-chloro-2-fluoro-6-(1H-tetrazol-1-yl)phenyl)-5-oxo-1,2,3,5,8,8a-hexahydroindolizine-3-carboxamide]	0.0091	0.0374
NC(=O)c1ccc(NC(=O)[C@@H]2CC[C@@H]3CC(c4c(-n5cc(C(F)(F)F)nn5)ccc(Cl)c4F)=CC(=O)N32)cc1F [ID No. 24, (3S,8aR)—N-(4-Carbamoyl-3-fluorophenyl)-7-(3-chloro-2-fluoro-6-(4-(trifluoromethyl)-1H-1,2,3-triazol-1-yl)phenyl)-5-oxo-1,2,3,5,8,8a-hexahydroindolizine-3-carboxamide]	0.0382	0.0761
NC(=O)c1ccc(NC(=O)[C@@H]2CC[C@@H]3CC(c4cc(Cl)ccc4-n4cc(C(F)(F)F)nn4)=CC(=O)N32)cc1F [ID No. 25, (3S,8aR)—N-(4-Carbamoyl-3-fluorophenyl)-7-(5-chloro-2-(4-(trifluoromethyl)-1H-1,2,3-triazol-1-yl)phenyl)-5-oxo-1,2,3,5,8,8a-hexahydroindolizine-3-carboxamide]	0.0281	0.116
CN(C)c1ccnc2ccc(NC(=O)C3CCC4CC(c5c(-n6cnnn6)ccc(Cl)c5F)=CC(=O)N43)cc12 (stereo not shown) [compound 87]	0.0208	0.0649
CN(C)c1ccnc2ccc(NC(=O)C3CCC4CC(c5c(-n6cc(Cl)nn6)ccc(Cl)c5F)=CC(=O)N43)cc12 (stereo not shown) [compound 88]	> 0.05	0.16
CN(C)c1ccnc2ccc(NC(=O)C3CCC4CC(c5c(-n6cc(C(F)(F)F)nn6)ccc(Cl)c5F)=CC(=O)N43)cc12 (stereo not shown) [compound 89]	> 0.05	0.637
[2H]c1nnnn1-c1ccc(Cl)c(F)c1C1=CC(=O)N2C(CCC2C(=O)Nc2ccc3c(c2)C2(CC2)C(=O)N3)C1 (stereo not shown) [compound 96]	0.0422	0.128
CC1C(=O)Nc2c(NC(=O)[C@@H]3CC[C@@H]4CC(c5c(-n6cc(C(F)(F)F)nn6)ccc(Cl)c5F)=CC(=O)N43)cccc21 (stereo partly shown) [compound 102]	> 0.05	0.57
Cn1nc2ccc(NC(=O)C3CCC4CC(c5c(-n6cc(Cl)nn6)ccc(Cl)c5F)=CC(=O)N43)cc2n1 (stereo not shown) [compound 105]	> 0.05	0.12
Cn1nc2ccc(NC(=O)C3CCC4CC(c5c(-n6cc(C(F)(F)F)nn6)ccc(Cl)c5F)=CC(=O)N43)cc2n1 (stereo not shown) [compound 106]	> 0.05	0.497

— patent publication US12286429B2, “5-oxo-1,2,3,5,8,8a-hexahydroindolizine-3-carboxamide derivatives useful as a factor XIa inhibitors” (Janssen Pharmaceutica NV, priority 2021, dated 2025)
